# Reference: ChEMBL document CHEMBL3885881, “DrugMatrix”
# Organism: Rattus norvegicus
# Experiment: DrugMatrix - Regimen: Daily Repeat
# Type: toxicity, organism-based, Sprague-Dawley
# Parameters: regimen Daily Repeat, gender Male, age 6-8 weeks
# Conditions: in vivo, po, 10 mg/kg, route oral GAVAGE, dose level Low, vehicle .5 % CMC; for ABSOLUTE BASOPHIL / ABSOLUTE EOSINOPHIL / ABSOLUTE LYMPHOCYTE / ABSOLUTE MONOCYTE / ABSOLUTE SEGMENTED NEUTROPHIL / BASOPHIL / EOSINOPHIL / ERYTHROCYTE COUNT / HEMATOCRIT / HEMOGLOBIN / LEUKOCYTE COUNT / LYMPHOCYTE / MEAN CORPUSCULAR HEMOGLOBIN / MEAN CORPUSCULAR HEMOGLOBIN CONCENTRATION / MEAN CORPUSCULAR VOLUME / MONOCYTE / NEUTROPHIL / NUCLEATED RED BLOOD CELLS / PLATELET COUNT: tissue Blood; for ALANINE AMINOTRANSFERASE / ALBUMIN / ALKALINE PHOSPHATASE / ASPARTATE AMINOTRANSFERASE / BLOOD UREA NITROGEN / CARBON DIOXIDE / CHLORIDE / CHOLESTEROL / CREATINE PHOSPHOKINASE / CREATININE / GLUCOSE / LACTATE DEHYDROGENASE / LIPASE / PHOSPHORUS / POTASSIUM / SODIUM / TOTAL BILIRUBIN / TOTAL PROTEIN / URIC ACID: tissue Plasma
smiles,measurement,setting,value
Nc1nc(N)c2nc(-c3ccccc3)c(N)nc2n1,ABSOLUTE BASOPHIL,"72 h, time 3 day",0 CELLS/uL
same,ABSOLUTE EOSINOPHIL,"72 h, time 3 day",222 CELLS/uL
same,ABSOLUTE LYMPHOCYTE,"72 h, time 3 day",17071.33 CELLS/uL
same,ABSOLUTE MONOCYTE,"72 h, time 3 day",553.33 CELLS/uL
same,ABSOLUTE SEGMENTED NEUTROPHIL,"72 h, time 3 day",1620 CELLS/uL
same,BASOPHIL,"72 h, time 3 day",0%
same,EOSINOPHIL,"72 h, time 3 day",1%
same,ERYTHROCYTE COUNT,"72 h, time 3 day",5.9 x10E6/uL
same,HEMATOCRIT,"72 h, time 3 day",37.03%
same,HEMOGLOBIN,"72 h, time 3 day",13.67 G/DL
same,LEUKOCYTE COUNT,"72 h, time 3 day",19.47 x10E3/uL
same,LYMPHOCYTE,"72 h, time 3 day",87.33%
same,MEAN CORPUSCULAR HEMOGLOBIN,"72 h, time 3 day",23.17 pg
same,MEAN CORPUSCULAR HEMOGLOBIN CONCENTRATION,"72 h, time 3 day",36.93 G/DL
same,MEAN CORPUSCULAR VOLUME,"72 h, time 3 day",62.7 fL
same,MONOCYTE,"72 h, time 3 day",3%
same,NEUTROPHIL,"72 h, time 3 day",8.67%
same,NUCLEATED RED BLOOD CELLS,"72 h, time 3 day",0 /100WBC
same,PLATELET COUNT,"72 h, time 3 day",1434.33 x10E3/uL
same,ALANINE AMINOTRANSFERASE,"72 h, time 3 day",48.33 u/L
same,ALBUMIN,"72 h, time 3 day",4.3 G/DL
same,ALKALINE PHOSPHATASE,"72 h, time 3 day",469.67 u/L
same,ASPARTATE AMINOTRANSFERASE,"72 h, time 3 day",88 u/L
same,BLOOD UREA NITROGEN,"72 h, time 3 day",15.33 mg/dL
same,CARBON DIOXIDE,"72 h, time 3 day",24 mmol/L
same,CHLORIDE,"72 h, time 3 day",104.67 MEQ/L
same,CHOLESTEROL,"72 h, time 3 day",67.33 mg/dL
same,CREATINE PHOSPHOKINASE,"72 h, time 3 day",281 u/L
same,CREATININE,"72 h, time 3 day",0.21 mg/dL
same,GLUCOSE,"72 h, time 3 day",161.33 mg/dL
same,LACTATE DEHYDROGENASE,"72 h, time 3 day",437.67 u/L
same,LIPASE,"72 h, time 3 day",8.67 u/L
same,PHOSPHORUS,"72 h, time 3 day",13.37 mg/dL
same,POTASSIUM,"72 h, time 3 day",6.69 MEQ/L
same,SODIUM,"72 h, time 3 day",147.13 MEQ/L
same,TOTAL BILIRUBIN,"72 h, time 3 day",0.23 mg/dL
same,TOTAL PROTEIN,"72 h, time 3 day",6.03 G/DL
same,URIC ACID,"72 h, time 3 day",2.37 mg/dL
same,ABSOLUTE BASOPHIL,"120 h, time 5 day",0 CELLS/uL
same,ABSOLUTE EOSINOPHIL,"120 h, time 5 day",142.67 CELLS/uL
same,ABSOLUTE LYMPHOCYTE,"120 h, time 5 day",11218.33 CELLS/uL
same,ABSOLUTE MONOCYTE,"120 h, time 5 day",128 CELLS/uL
same,ABSOLUTE SEGMENTED NEUTROPHIL,"120 h, time 5 day",1311 CELLS/uL
same,BASOPHIL,"120 h, time 5 day",0%
same,EOSINOPHIL,"120 h, time 5 day",1.33%
same,ERYTHROCYTE COUNT,"120 h, time 5 day",5.9 x10E6/uL
same,HEMATOCRIT,"120 h, time 5 day",36.6%
same,HEMOGLOBIN,"120 h, time 5 day",13.67 G/DL
same,LEUKOCYTE COUNT,"120 h, time 5 day",12.8 x10E3/uL
same,LYMPHOCYTE,"120 h, time 5 day",87.67%
same,MEAN CORPUSCULAR HEMOGLOBIN,"120 h, time 5 day",23.17 pg
same,MEAN CORPUSCULAR HEMOGLOBIN CONCENTRATION,"120 h, time 5 day",37.33 G/DL
same,MEAN CORPUSCULAR VOLUME,"120 h, time 5 day",62 fL
same,MONOCYTE,"120 h, time 5 day",1%
same,NEUTROPHIL,"120 h, time 5 day",10%
same,NUCLEATED RED BLOOD CELLS,"120 h, time 5 day",0.33 /100WBC
same,PLATELET COUNT,"120 h, time 5 day",1227.67 x10E3/uL
same,ALANINE AMINOTRANSFERASE,"120 h, time 5 day",45.33 u/L
same,ALBUMIN,"120 h, time 5 day",4.2 G/DL
same,ALKALINE PHOSPHATASE,"120 h, time 5 day",320.33 u/L
same,ASPARTATE AMINOTRANSFERASE,"120 h, time 5 day",83 u/L
same,BLOOD UREA NITROGEN,"120 h, time 5 day",18.67 mg/dL
same,CARBON DIOXIDE,"120 h, time 5 day",26 mmol/L
same,CHLORIDE,"120 h, time 5 day",106.67 MEQ/L
same,CHOLESTEROL,"120 h, time 5 day",68.33 mg/dL
same,CREATINE PHOSPHOKINASE,"120 h, time 5 day",371.67 u/L
same,CREATININE,"120 h, time 5 day",0.19 mg/dL
same,GLUCOSE,"120 h, time 5 day",145 mg/dL
same,LACTATE DEHYDROGENASE,"120 h, time 5 day",432 u/L
same,LIPASE,"120 h, time 5 day",9 u/L
same,PHOSPHORUS,"120 h, time 5 day",11.77 mg/dL
same,POTASSIUM,"120 h, time 5 day",5.68 MEQ/L
same,SODIUM,"120 h, time 5 day",147.3 MEQ/L
same,TOTAL BILIRUBIN,"120 h, time 5 day",0.17 mg/dL
same,TOTAL PROTEIN,"120 h, time 5 day",5.93 G/DL
same,URIC ACID,"120 h, time 5 day",1.3 mg/dL
